US20250346600A1, “TRICYCLIC DERIVATIVES AND RELATED USES” (MOMA Therapeutics, Inc., priority 2023, published 2025)

How the values were obtained:
[1] = system: HCT116 cells; experiment: HCT116 (MSI) 7 day viability, CellTiter Glo; format: cell-based; details: Homo sapiens, HCT-116, 168 h, 7 days, read-out: HCT116 (MSI) Viability 7 Day Abs AC50
Summary of the method: (§1)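 HCT116 seeded at 50 cells/well and HT29 at 500 cells/well onto compound plates (10-point 3-fold dilutions from 10 mM DMSO stock), incubated 7 days at 37 °C, 5% CO2.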

[2] = system: HT29 cells; experiment: HT29 (MSS) 7 day viability, CellTiter Glo; format: cell-based; details: Homo sapiens, HT-29, 168 h, 7 days, read-out: HT29 (MSS) Viability 7 Day CTGAbs AC50
Summary of the method: as §1

[3] = target: T1, Full length WRN protein (aa 2-1432) (Homo sapiens (Human), UniProt Q14191); experiment: WRN ATPase ADP-Glo biochemical assay, Assay Format B (100 μM ATP); details: 0.25 nM WRN, 100 nM C6.18 ssDNA, 60 min preincubation, read-out: ATPase ADPGlo AC50 (uM)- Assay Format B
[4] = target: T1, Full length WRN protein (aa 2-1432); experiment: WRN ATPase ADP-Glo biochemical assay, Assay Format A (10 μM ATP); details: 0.25 nM WRN, 100 nM C6.18 ssDNA, 30 min preincubation, read-out: ATPase ADPGlo AC50 (uM)- Assay Format A
Summary of the method: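 ADP-Glo luminescence measured hydrolysis of ATP by purified, baculovirus-expressed N-terminally tagged full-length WRN. Enzyme (0.5 nM) was preincubated 30 min with compound, then 200 nM ssDNA C6.18 plus 20 μM ATP were added (pre-mix levels) for 30 min at RT. IC50s come from four-parameter fits, geometric mean of at least two trials.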

T1 sequence (Q14191 2-1432): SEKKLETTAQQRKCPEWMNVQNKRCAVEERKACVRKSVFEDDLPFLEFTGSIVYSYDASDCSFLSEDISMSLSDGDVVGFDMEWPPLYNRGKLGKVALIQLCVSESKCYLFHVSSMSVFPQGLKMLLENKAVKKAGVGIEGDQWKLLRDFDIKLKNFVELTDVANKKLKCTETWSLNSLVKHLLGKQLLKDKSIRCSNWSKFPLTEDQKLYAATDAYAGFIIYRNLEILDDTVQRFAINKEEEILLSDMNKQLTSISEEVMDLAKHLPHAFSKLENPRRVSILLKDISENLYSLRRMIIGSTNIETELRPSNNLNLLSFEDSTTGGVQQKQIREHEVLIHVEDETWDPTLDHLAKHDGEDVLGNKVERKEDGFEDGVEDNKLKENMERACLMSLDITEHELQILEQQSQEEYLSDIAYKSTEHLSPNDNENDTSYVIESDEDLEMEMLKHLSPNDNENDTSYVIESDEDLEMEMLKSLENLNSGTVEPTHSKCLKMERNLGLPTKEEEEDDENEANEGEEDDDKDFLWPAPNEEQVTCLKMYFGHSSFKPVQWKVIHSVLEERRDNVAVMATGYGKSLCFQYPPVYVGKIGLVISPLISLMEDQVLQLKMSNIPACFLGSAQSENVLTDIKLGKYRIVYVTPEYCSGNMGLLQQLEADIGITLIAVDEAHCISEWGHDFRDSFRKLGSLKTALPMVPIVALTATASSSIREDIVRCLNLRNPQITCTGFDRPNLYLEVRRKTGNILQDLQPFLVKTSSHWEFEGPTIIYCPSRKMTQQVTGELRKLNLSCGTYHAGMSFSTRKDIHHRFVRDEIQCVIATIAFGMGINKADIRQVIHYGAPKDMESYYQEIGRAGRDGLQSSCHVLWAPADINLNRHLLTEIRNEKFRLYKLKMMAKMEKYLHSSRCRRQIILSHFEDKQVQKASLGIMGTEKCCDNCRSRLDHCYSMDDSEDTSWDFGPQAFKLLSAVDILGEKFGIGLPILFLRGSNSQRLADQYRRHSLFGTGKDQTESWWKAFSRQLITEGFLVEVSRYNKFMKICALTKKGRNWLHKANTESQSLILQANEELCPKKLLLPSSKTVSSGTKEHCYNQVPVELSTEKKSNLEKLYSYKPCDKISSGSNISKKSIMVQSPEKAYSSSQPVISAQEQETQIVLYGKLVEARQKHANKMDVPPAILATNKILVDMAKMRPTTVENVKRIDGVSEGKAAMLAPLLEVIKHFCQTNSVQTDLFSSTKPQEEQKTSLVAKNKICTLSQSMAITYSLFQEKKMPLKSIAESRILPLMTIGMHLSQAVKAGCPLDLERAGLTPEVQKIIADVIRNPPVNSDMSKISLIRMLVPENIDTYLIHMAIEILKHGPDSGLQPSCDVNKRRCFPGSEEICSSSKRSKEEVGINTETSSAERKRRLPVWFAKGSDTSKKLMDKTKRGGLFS

Structure (SMILES)	AC50 [1] [nM]	AC50 [2] [nM]	AC50 [3] [µM]	AC50 [4] [µM]
C=CC(=O)N1CC(C)Oc2nn(-c3ccc(C(C)C)cc3)c3c2C(C1)N(C(=O)c1ccc(Br)c2[nH]cnc12)CC3 (stereo not drawn) [Compound 52, 1-(5-(7-bromo-1H-benzo[d]imidazole-4-carbonyl)-2-(4-isopropylphenyl)-9-methyl-2,3,4,5,5a,6,8,9-octahydro-7H-10-oxa-1,2,5,7-tetraazacycloocta[cd]inden-7-yl)prop-2-en-1-one]	250 to 500	> 3000	> 0.055	0.005 to 0.015
C=CC(=O)N1CCc2nn(-c3ccc(C4CCC4)cc3O)c3c2C(C1)N(C(=O)c1ccc(Br)c2nc(CCO)[nH]c12)CC3 (stereo not drawn) [Compound 148, 1-(5-(4-bromo-2-(2-hydroxyethyl)-1H-benzo[d]imidazole-7-carbonyl)-2-(4-cyclobutyl-2-hydroxyphenyl)-2,3,4,5,5a,6,8,9-octahydro-7H-1,2,5,7-tetraazabenzo[cd]azulen-7-yl)prop-2-en-1-one]	1 to 100	> 3000	0.005 to 0.015	< 0.0015
C=CC(=O)N1CCOc2nn(-c3ccc(C(C)C)cc3)c3c2C(C1)N(C(=O)c1ccc(Br)c2[nH]cnc12)CC3 (stereo not drawn) [Compound 46, 1-(5-(7-bromo-1H-benzo[d]imidazole-4-carbonyl)-2-(4-isopropylphenyl)-2,3,4,5,5a,6,8,9-octahydro-7H-10-oxa-1,2,5,7-tetraazacycloocta[cd]inden-7-yl)prop-2-en-1-one]	1 to 100	> 3000	0.015 to 0.055	0.0015 to 0.005
C=CC(=O)N1CCOc2nn(-c3ccc(C4CC4)cc3C)c3c2C(C1)N(C(=O)c1ccc(Br)c2[nH]cnc12)CC3 (stereo not drawn) [Compound 103, 1-(5-(7-bromo-1H-benzo[d]imidazole-4-carbonyl)-2-(4-cyclopropyl-2-methylphenyl)-2,3,4,5,5a,6,8,9-octahydro-7H-10-oxa-1,2,5,7-tetraazacycloocta[cd]inden-7-yl)prop-2-en-1-one]	250 to 500	> 3000	0.015 to 0.055	< 0.0015
C=CC(=O)N1CCc2nn(-c3ccc(C4CC4)cc3O)c3c2C(C1)N(C(=O)c1cnc(C(C)(F)F)c(F)c1N)CC3 (stereo not drawn) [Compound 206, 1-(5-(4-amino-6-(1,1-difluoroethyl)-5-fluoronicotinoyl)-2-(4-cyclopropyl-2-hydroxyphenyl)-2,3,4,5,5a,6,8,9-octahydro-7H-1,2,5,7-tetraazabenzo[cd]azulen-7-yl)prop-2-en-1-one]	1 to 100	> 3000	0.0015 to 0.005	0.0015 to 0.005
C=CC(=O)N1CCc2nc(-c3ccc(C4CCC4)cc3)n3c2C(C1)N(C(=O)c1cnc(C(F)(F)F)c(O)c1)CC3 (stereo not drawn) [Compound 86, 1-(2-(4-cyclobutylphenyl)-5-(5-hydroxy-6-(trifluoromethyl)nicotinoyl)-4,5,5a,6,8,9-hexahydro-1,2a,5,7-tetraazabenzo[cd]azulen-7(3H)-yl)prop-2-en-1-one]	250 to 500	> 3000	0.015 to 0.055	< 0.0015
C=CC(=O)N1CCc2nn(-c3ccc(C4CC4)cc3)c3c2C(C1)N(C(=O)c1cnc(Br)c(F)c1N)CC3 (stereo not drawn) [Compound 182, 1-(5-(4-amino-6-bromo-5-fluoronicotinoyl)-2-(4-cyclopropylphenyl)-2,3,4,5,5a,6,8,9-octahydro-7H-1,2,5,7-tetraazabenzo[cd]azulen-7-yl)prop-2-en-1-one]	1 to 100	> 3000	0.0015 to 0.005	< 0.0015
C=CC(=O)N1CCc2nn(-c3ccc(C4CCC4)cc3O)c3c2C(C1)N(C(=O)c1ccc(C(C)(F)F)nc1N)CC3 (stereo not drawn) [Compound 155, 1-(5-(2-amino-6-(1,1-difluoroethyl)nicotinoyl)-2-(4-cyclobutyl-2-hydroxyphenyl)-2,3,4,5,5a,6,8,9-octahydro-7H-1,2,5,7-tetraazabenzo[cd]azulen-7-yl)prop-2-en-1-one]	1 to 100	> 3000	0.005 to 0.015	< 0.0015
C=CC(=O)N1CCc2nn(-c3ccc(C45CC(C4)C5)cc3)c3c2C(C1)N(C(=O)c1ccc(C(F)(F)F)c2[nH]ncc12)CC3 (stereo not drawn) [Compound 19, 1-(2-(4-(bicyclo[1.1.1]pentan-1-yl)phenyl)-5-(7-(trifluoromethyl)-1H-indazole-4-carbonyl)-2,3,4,5,5a,6,8,9-octahydro-7H-1,2,5,7-tetraazabenzo[cd]azulen-7-yl)prop-2-en-1-one]	1 to 100	> 3000	0.015 to 0.055	0.0015 to 0.005
C=CC(=O)N1CCc2nn(-c3ccc(C4CC4)cc3O)c3c2C(C1)N(C(=O)c1cnc(Br)c(F)c1N)CC3 (stereo not drawn) [Compound 202, 1-(5-(4-amino-6-bromo-5-fluoronicotinoyl)-2-(4-cyclopropyl-2-hydroxyphenyl)-2,3,4,5,5a,6,8,9-octahydro-7H-1,2,5,7-tetraazabenzo[cd]azulen-7-yl)prop-2-en-1-one]	1 to 100	> 3000	0.0015 to 0.005	0.0015 to 0.005
C=CC(=O)N1CC(F)c2nn(-c3ccc(C4CCC4)cc3)c3c2C(C1)N(C(=O)c1ccc(Br)c2[nH]cnc12)CC3 (stereo not drawn) [Compound 28, 1-(5-(7-bromo-1H-benzo[d]imidazole-4-carbonyl)-2-(4-cyclobutylphenyl)-9-fluoro-2,3,4,5,5a,6,8,9-octahydro-7H-1,2,5,7-tetraazabenzo[cd]azulen-7-yl)prop-2-en-1-one]	1 to 100	1000 to 3000	0.0015 to 0.005	< 0.0015
C=CC(=O)N1CCc2nn(-c3ccc(C(C)C)cc3)c3c2C(C1)N(C(=O)c1cnc(C(F)(F)F)c(OC)c1)CC3 (stereo not drawn) [Compound 12, 1-(2-(4-isopropylphenyl)-5-(5-methoxy-6-(trifluoromethyl)nicotinoyl)-2,3,4,5,5a,6,8,9-octahydro-7H-1,2,5,7-tetraazabenzo[cd]azulen-7-yl)prop-2-en-1-one]	1 to 100	> 3000	0.015 to 0.055	< 0.0015
C=CC(=O)N1CCc2nn(-c3ccc(C4CC4)cc3O)c3c2C(C1)N(C(=O)c1cc(F)c(C(F)(F)F)nc1N)CC3 (stereo not drawn) [Compound 200, 1-(5-(2-amino-5-fluoro-6-(trifluoromethyl)nicotinoyl)-2-(4-cyclopropyl-2-hydroxyphenyl)-2,3,4,5,5a,6,8,9-octahydro-7H-1,2,5,7-tetraazabenzo[cd]azulen-7-yl)prop-2-en-1-one]	1 to 100	> 3000	0.015 to 0.055	< 0.0015
C=CC(=O)N1CCc2nn(-c3ccc(C4CCC4)cc3O)c3c2C(C1)N(C(=O)c1cnc(C(F)(F)F)c(SC)c1)CC3 (stereo not drawn) [Compound 89, 1-(2-(4-cyclobutyl-2-hydroxyphenyl)-5-(5-(methylthio)-6-(trifluoromethyl)nicotinoyl)-2,3,4,5,5a,6,8,9-octahydro-7H-1,2,5,7-tetraazabenzo[cd]azulen-7-yl)prop-2-en-1-one]	1 to 100	> 3000	0.015 to 0.055	< 0.0015
C=CC(=O)N1CCc2nn(-c3ccc(C4CC4)cc3O)c3c2C(C1)N(C(=O)c1cnc(C(F)(F)F)c(F)c1N)CC3 (stereo not drawn) [Compound 194, 1-(5-(4-amino-5-fluoro-6-(trifluoromethyl)nicotinoyl)-2-(4-cyclopropyl-2-hydroxyphenyl)-2,3,4,5,5a,6,8,9-octahydro-7H-1,2,5,7-tetraazabenzo[cd]azulen-7-yl)prop-2-en-1-one]	1 to 100	> 3000	0.005 to 0.015	0.0015 to 0.005
